Experimental data as given in paper PMC10143306, “Seven New Lobane Diterpenoids from the Soft Coral Lobophytum catalai” (Marine Drugs, 2023).
pIC50: −log10 of the molar value. Read-outs that look alike come from different tables or passages of the source.

Assays:
[1] = test system: CuSO4-induced transgenic fluorescent zebrafish (Tg: zlyz-EGFP); test: Anti-inflammatory assay in CuSO4-induced transgenic fluorescent zebrafish (macrophage count around neuromasts); format: in vivo; details: for Number of macrophages around nerve mound (mean ± SEM): Table S15
Experimental: On account of the fact that research on the anti-inflammatory activity of lobane diterpenoids in zebrafish models has not been reported up to now, we attempted to identify lobane diterpenoids with anti-inflammatory activity in zebrafish models. The anti-inflammatory effect of compounds 1–7 was assessed in CuSO4-induced transgenic fluorescent zebrafish. CuSO4 can produce an intense acute inflammatory response in the neuromasts and mechanosensorial cells in the lateral line of zebrafish, stimulating the infiltration of macrophages. Thus, the number of macrophages surrounding the neuromasts in zebrafish can be observed and counted under a fluorescence microscope. Therefore, the anti-inflammatory activity of these lobane diterpenoids can be evaluated.
Figure 5 Anti-inflammatory assays of compounds 1–7. (a) Images of inflammatory sites in CuSO4-induced transgenic fluorescent zebrafish (Tg: zlyz-EGFP) expressing enhanced green fluorescent protein (EGFP) treated with compounds 1–7, using indomethacin as a positive control.
Healthy macrophage fluorescent transgenic zebrafish (Tg: zlyz-EGFP) were provided by the Biology Institute of Shandong Academy of Science (Jinan, China). The zebrafish maintenance and anti-inflammation assay were carried out as previously described. Each zebrafish larva was photographed using a fluorescence microscope (AXIO, Zom.V16), and the number of macrophages around the nerve mound was calculated using Image-Pro Plus 6.0 software (Rockville, MD, USA). One-way analysis of variance was conducted using GraphPad Prism 7.00 software (San Diego, CA, USA). Lobocatalens A–G (1–7) were tested for anti-inflammatory activities in the zebrafish models. Three dpf (days post-fertilization), healthy macrophage fluorescent transgenic zebrafish were used as animal models to evaluate the anti-inflammatory effects of compounds 1–7.

[2] = test system: K562 (human leukemia) cell line; test: Cytotoxicity assay, MTT method, K562; format: cell-based; details: Homo sapiens, read-out: Inhibition rate (%); for inhibition at 30 µM: K562, K562, 30 μM; for inhibition at 1 µM: K562, K562, 1 μM, positive control
Experimental: (§1) Moreover, the cytotoxic activity of these isolated compounds (1–7) was evaluated against the human leukemia K562, normal human hepatocyte L-02, human pancreatic cancer ASPC-1, and human breast cancer MDA-MB-231 cell lines.
(§2) The MTT method was used to evaluate cytotoxicity against the K562 (human leukemia) cell line, and the SRB method was used to evaluate cytotoxicity against the L-02 (normal human hepatocytes), ASPC-1 (human pancreatic cancer), and MDA-MB-231 (human breast cancer) cell lines. As a positive control, Adriamycin (doxorubicin) was used.

[3] = Cytotoxicity assay, MTT method, K562; format: cell-based, human; details: human, K562 leukemia cells; K562 cell line, MTT method; read-out: Cytotoxic activity (IC50)
Experimental: as §1, §2

[4] = Cytotoxicity assay, SRB method, ASPC-1; format: cell-based, human; details: human, ASPC-1 pancreatic cancer cells; ASPC-1 cell line, SRB method; read-out: Cytotoxic activity (IC50)
Experimental: as §1, §2

[5] = test system: ASPC-1 (human pancreatic cancer) cell line; test: Cytotoxicity assay, SRB method, ASPC-1; format: cell-based; details: Homo sapiens, ASPC1, Table S16, read-out: Inhibition rate (%); for inhibition at 30 µM: ASPC-1, 30 μM
Experimental: as §1, §2

[6] = test system: L-02 (normal human hepatocytes) cell line; test: Cytotoxicity assay, SRB method, L-02; format: cell-based; details: Homo sapiens, Hepatocyte, Table S16, read-out: Inhibition rate (%); for inhibition at 30 µM: L-02, 30 μM
Experimental: as §1, §2

[7] = Cytotoxicity assay, SRB method, L-02; format: cell-based, human; details: human, L-02 normal hepatocyte cells; L-02 cell line, SRB method; read-out: Cytotoxic activity (IC50)
Experimental: as §1, §2

[8] = Cytotoxicity assay, SRB method, MDA-MB-231; format: cell-based, human; details: human, MDA-MB-231 breast cancer cells; MDA-MB-231 cell line, SRB method; read-out: Cytotoxic activity (IC50)
Experimental: as §1, §2

[9] = test system: MDA-MB-231 (human breast cancer) cell line; test: Cytotoxicity assay, SRB method, MDA-MB-231; format: cell-based; details: Homo sapiens, Table S16, read-out: Inhibition rate (%); for inhibition at 30 µM: MDA-MB-231, 30 μM
Experimental: as §1, §2

[10] = Danio rerio, Macrophage, 20 μM, Table S15, read-out: Inhibition rate

SMILES | inhibition at 30 µM ([2]; Table S16) [%] | pIC50 [3] | Number of macrophages around nerve mound (mean ± SEM) ([1]; 20 μM) | inhibition at 20 µM [1, 10] [%] | pIC50 [4] | inhibition at 30 µM [5] [%] | inhibition at 30 µM [6] [%] | pIC50 [7] | pIC50 [8] | inhibition at 30 µM [9] [%] | other results
COc1ccc2c(c1)c(CC(=O)O)c(C)n2C(=O)c1ccc(Cl)cc1 [Indomethacin, reference compound] |  |  |  |  |  |  |  |  |  |  | Number of macrophages around nerve mound (mean ± SEM) ([1]; 40 μM, positive control): 11.88 ± 1.575; inhibition at 40 µM ([1]; Danio rerio, Macrophage, 40 μM, positive control, Table S15, read-out: Inhibition rate): 62.8%
C=CC1(C)CCC(C2=COC(C(C)(C)O)CC2=O)CC1C(=C)C (stereo not drawn) [Compound 3, Lobocatalen C] | 43.5 | < 4.52 | 25.30 ± 1.904 | 20.7 | < 4.52 | 18.6 | 22.1 | < 4.52 | < 4.52 | 19.9 | 
C=CC1(C)CCC(C(=O)C=CC(OC(C)=O)C(C)(C)O)CC1C(=C)C (stereo not drawn) [Compound 7, Lobocatalen G] | 63.5 | 4.55 | 18.6 ± 1.805 | 41.7 | < 4.52 | 17.5 | 29.8 | < 4.52 | < 4.52 | 10.4 | inhibition at 0.9375 µM ([2]; K562, K562, 0.9375 μM, Table S17): 5.87%; inhibition at 1.875 µM ([2]; K562, K562, 1.875 μM, Table S17): 9.55%; inhibition at 3.75 µM ([2]; K562, K562, 3.75 μM, Table S17): 11.6%; inhibition at 7.5 µM ([2]; K562, K562, 7.5 μM, Table S17): 15.5%; inhibition at 15 µM ([2]; K562, K562, 15 μM, Table S17): 21%; inhibition at 30 µM ([2]; Table S17): 73.3%; Anti-inflammatory activity (in words) ([1]; 20 μM, migration and number of macrophages surrounding the neuromasts): moderate anti-inflammatory activity
COc1cccc2c1C(=O)c1c(O)c3c(c(O)c1C2=O)C[C@@](O)(C(=O)CO)C[C@@H]3O[C@H]1C[C@H](N)[C@H](O)[C@H](C)O1 [doxorubicin, reference compound] |  | > 6.00 |  |  | > 6.00 |  |  | > 6.00 | > 6.00 |  | inhibition at 1 µM ([2]; Table S16): 100%; inhibition at 1 µM ([2]; Table S17): 100%; inhibition at 1 µM ([5]; ASPC-1, 1 μM, positive control): 52%; inhibition at 1 µM ([6]; L-02, 1 μM, positive control): 83%; inhibition at 1 µM ([9]; MDA-MB-231, 1 μM, positive control): 55.9%
C=CC1(C)CCC(C(=C)CCC(=O)C(C)(C)O)CC1C(=C)C (stereo not drawn) [Compound 5, Lobocatalen E] | 34.3 | < 4.52 | 21.89 ± 3.199 | 31.4 |  |  |  |  |  |  | 
C=CC1(C)CCC(C2=CCC3OC2OC3(C)C)CC1C(=C)C (stereo not drawn) [Compound 1, Lobocatalen A] | 39.9 | < 4.52 | 25.67 ± 3.14 | 19.5 |  |  | 24.9 | < 4.52 | < 4.52 | 21.9 | 
C=CC1(C)CCC(C(C)=CC(=O)CC(C)(C)O)CC1C(=C)C (stereo not drawn) [Compound 4, Lobocatalen D] | 36.7 | < 4.52 | 22.22 ± 2.737 | 30.3 | < 4.52 | 18.9 | 21.6 | < 4.52 | < 4.52 | 18.4 | 
C=CC1(C)CCC(C2=CCC(C(C)(C)O)OC2O)CC1C(=C)C (stereo not drawn) [Compound 2, Lobocatalen B] | 48.7 | < 4.52 | 30.00 ± 3.047 | 5.93 |  |  | 30.2 | < 4.52 | < 4.52 | 24.2 | 
C=CC1(C)CCC(C(C)=CC=CC(C)=O)CC1C(=C)C (stereo not drawn) [Compound 6, Lobocatalen F] |  |  | 26.2 ± 2.356 | 17.8 |  |  | 25.4 | < 4.52 |  |  | 
